The numbers were not newly measured in patent publication US9180198B2, “Slow-release cilostazol tablet having an improved elution rate and minimal side effects” (KOREA UNITED PHARM, INC., priority 2009, dated 2015), which cites them from elsewhere.

Series [1] deals with cAMP-PDE (cyclic AMP phosphodiesterase). Conditions: in blood platelets and vascular smooth muscles.
Series [2] relates to blood platelets. As to conditions: blood platelets isolated from a mouse, a rat, a rabbit, a dog and a human.

As to `O=C1CCc2cc(OCCCCc3nnnn3C3CCCCC3)ccc2N1` [cilostazol, 6-[4-(cyclohexyl-1H-tetrazol-5-yl)butoxy]-3,4-dihydro-2(1H)-quinolinone], the water solubility entry was “poorly water-soluble”. The cAMP-PDE activity entry in series [1] is on record as “inhibit cAMP-PDE (cyclic AMP phosphodiesterase) activity”. Also, the “primary aggregation of blood platelets caused by ADP, epinephrine” value in series [2] is given as “suppress the primary aggregation of blood platelets”.
